≈ marks a conversion by molar mass, not a printed value.
Tests used:
[1] = tested on: Klebsiella pneumoniae; assay: Bactericidal activity against ESBLs positive Carbapenem-sensitive Klebsiella pneumoniae 17-2 assessed as reduction in bacterial growth in the presence of avibactam; type: functional
[2] = tested on: Acinetobacter baumannii; assay: Bactericidal activity against Carbapenem- resistant Acinetobacter baumannii 17-6 assessed as reduction in bacterial growth in the presence of avibactam; type: functional
[3] = tested on: Klebsiella pneumoniae; assay: Antibacterial activity against Carbapenem- resistant Klebsiella pneumoniae KR 15-8 assessed as reduction in bacterial growth
[4] = tested on: Acinetobacter baumannii; assay: Antibacterial activity against Carbapenem- resistant Acinetobacter baumannii 17-9 assessed as reduction in bacterial growth in the presence of Avibactam; type: functional
[5] = tested on: Klebsiella aerogenes; assay: Bactericidal activity against Enterobacter aerogenes 17-1 assessed as reduction in bacterial growth in the presence of avibactam; type: functional
[6] = tested on: Enterobacter cloacae; assay: Bactericidal activity against Enterobacter cloacae 17-2 assessed as reduction in bacterial growth in the presence of avibactam; type: functional
[7] = tested on: Pseudomonas aeruginosa; assay: Bactericidal activity against carbapenem-sensitive Pseudomonas aeruginosa 17-29 assessed as reduction in bacterial growth in the presence of avibactam; type: functional
[8] = tested on: Escherichia coli; assay: Antibacterial activity against ESBLs negative Carbapenem-sensitive Escherichia coli 17-4 assessed as reduction in bacterial growth; type: functional
[9] = tested on: Klebsiella pneumoniae; assay: Bactericidal activity against ESBLs positive Carbapenem-sensitive Klebsiella pneumoniae 17-2 assessed as reduction in bacterial growth; type: functional
[10] = tested on: Acinetobacter baumannii; assay: Antibacterial activity against Carbapenem- resistant Acinetobacter baumannii 17-6 assessed as reduction in bacterial growth in the presence of Avibactam; type: functional
[11] = tested on: Escherichia coli; assay: Antibacterial activity against ESBLs positive Carbapenem-sensitive Escherichia coli 17-11 assessed as reduction in bacterial growth in the presence of Avibactam; type: functional
[12] = tested on: Klebsiella aerogenes; assay: Antibacterial activity against Enterobacter aerogenes 17-2 assessed as reduction in bacterial growth in the presence of Avibactam; type: functional
[13] = tested on: Klebsiella pneumoniae; assay: Bactericidal activity against Klebsiella pneumoniae ATCC BAA-1705 assessed as reduction in bacterial growth; type: functional
[14] = tested on: Klebsiella pneumoniae; assay: Antibacterial activity against ESBLs positive Carbapenem-sensitive Klebsiella pneumoniae 17-12 assessed as reduction in bacterial growth
[15] = tested on: Acinetobacter baumannii; assay: Antibacterial activity against Carbapenem- resistant Acinetobacter baumannii 17-3 assessed as reduction in bacterial growth in the presence of Avibactam; type: functional
[16] = tested on: Acinetobacter baumannii; assay: Antibacterial activity against Carbapenem- resistant Acinetobacter baumannii 17-8 assessed as reduction in bacterial growth in the presence of Avibactam; type: functional
[17] = tested on: Acinetobacter baumannii; assay: Antibacterial activity against Carbapenem- resistant Acinetobacter baumannii 17-11 assessed as reduction in bacterial growth in the presence of Avibactam; type: functional
[18] = tested on: Acinetobacter baumannii; assay: Bactericidal activity against Carbapenem- resistant Acinetobacter baumannii 17-6 assessed as reduction in bacterial growth; type: functional
[19] = tested on: Klebsiella pneumoniae; assay: Antibacterial activity against ESBLs positive Carbapenem-sensitive Klebsiella pneumoniae 17-9 assessed as reduction in bacterial growth in the presence of Avibactam; type: functional
[20] = tested on: Klebsiella aerogenes; assay: Antibacterial activity against Enterobacter aerogenes 15-4 assessed as reduction in bacterial growth; type: functional
[21] = tested on: Escherichia coli; assay: Bactericidal activity against ESBLs negative Carbapenem--sensitive Escherichia coli 17-7 assessed as reduction in bacterial growth; type: functional
[22] = tested on: Pseudomonas aeruginosa; assay: Antibacterial activity against Carbapenem- resistant Pseudomonas aeruginosa 17-5 assessed as reduction in bacterial growth in the presence of Avibactam; type: functional
[23] = tested on: Escherichia coli; assay: Bactericidal activity against Escherichia coli NCTC 13353 assessed as reduction in bacterial growth in the presence of avibactam; type: functional
[24] = tested on: Klebsiella pneumoniae; assay: Antibacterial activity against ESBLs positive Carbapenem-sensitive Klebsiella pneumoniae 17-15 assessed as reduction in bacterial growth in the presence of Avibactam; type: functional
[25] = tested on: Pseudomonas aeruginosa; assay: Bactericidal activity against Carbapenem- resistant Pseudomonas aeruginosa 17-8 assessed as reduction in bacterial growth in the presence of avibactam; type: functional
[26] = tested on: Escherichia coli; assay: Bactericidal activity against Escherichia coli ATCC 25922 assessed as reduction in bacterial growth; type: functional
[27] = tested on: Klebsiella aerogenes; assay: Bactericidal activity against Enterobacter aerogenes 15-4 assessed as reduction in bacterial growth; type: functional
[28] = tested on: Klebsiella pneumoniae; assay: Antibacterial activity against ESBLs positive Carbapenem-sensitive Klebsiella pneumoniae 17-14 assessed as reduction in bacterial growth in the presence of Avibactam; type: functional
[29] = tested on: Klebsiella pneumoniae; assay: Antibacterial activity against Carbapenem- resistant Klebsiella pneumoniae KR 15-5 assessed as reduction in bacterial growth
[30] = tested on: Escherichia coli; assay: Antibacterial activity against Escherichia coli NCTC 13353 assessed as reduction in bacterial growth in the presence of Avibactam; type: functional
[31] = tested on: Acinetobacter baumannii; assay: Antibacterial activity against Carbapenem- resistant Acinetobacter baumannii 17-5 assessed as reduction in bacterial growth
[32] = tested on: Klebsiella pneumoniae; assay: Antibacterial activity against ESBLs positive Carbapenem-sensitive Klebsiella pneumoniae 17-4 assessed as reduction in bacterial growth in the presence of Avibactam; type: functional
[33] = tested on: Escherichia coli; assay: Bactericidal activity against Escherichia coli ATCC 25922 assessed as reduction in bacterial growth in the presence of avibactam; type: functional
[34] = tested on: Enterobacter cloacae; assay: Bactericidal activity against Enterobacter cloacae 17-10 assessed as reduction in bacterial growth; type: functional
[35] = tested on: Pseudomonas aeruginosa; assay: Bactericidal activity against Carbapenem- resistant Pseudomonas aeruginosa 17-5 assessed as reduction in bacterial growth in the presence of avibactam; type: functional
[36] = tested on: Pseudomonas aeruginosa; assay: Antibacterial activity against Carbapenem- sensitive Pseudomonas aeruginosa 17-21 assessed as reduction in bacterial growth in the presence of Avibactam; type: functional
[37] = tested on: Klebsiella pneumoniae; assay: Antibacterial activity against Carbapenem- resistant Klebsiella pneumoniae KR 15-6 assessed as reduction in bacterial growth in the presence of Avibactam; type: functional
[38] = tested on: Klebsiella pneumoniae; assay: Antibacterial activity against Carbapenem- resistant Klebsiella pneumoniae KR 15-9 assessed as reduction in bacterial growth in the presence of Avibactam; type: functional
[39] = tested on: Enterobacter cloacae; assay: Bactericidal activity against Enterobacter cloacae 17-8 assessed as reduction in bacterial growth in the presence of avibactam; type: functional
[40] = tested on: Klebsiella pneumoniae; assay: Bactericidal activity against ESBLs positive Carbapenem-sensitive Klebsiella pneumoniae 17-6 assessed as reduction in bacterial growth in the presence of avibactam; type: functional
[41] = tested on: Klebsiella pneumoniae; assay: Antibacterial activity against Multidrug resistant Klebsiella pneumoniae KR 15-3 assessed as reduction in bacterial growth; type: functional
[42] = tested on: Acinetobacter baumannii; assay: Antibacterial activity against Carbapenem- resistant Acinetobacter baumannii 17-13 assessed as reduction in bacterial growth in the presence of Avibactam; type: functional
[43] = tested on: Escherichia coli; assay: Antibacterial activity against ESBLs negative Carbapenem--sensitive Escherichia coli 17-20 assessed as reduction in bacterial growth
[44] = tested on: Acinetobacter baumannii; assay: Antibacterial activity against Multidrug resistant Acinetobacter baumannii AR 15-3 assessed as reduction in bacterial growth; type: functional
[45] = tested on: Klebsiella pneumoniae; assay: Bactericidal activity against Carbapenem- resistant Klebsiella pneumoniae KR 15-6 assessed as reduction in bacterial growth in the presence of avibactam; type: functional
[46] = tested on: Klebsiella pneumoniae; assay: Antibacterial activity against Klebsiella pneumoniae ATCC BAA-1705 assessed as reduction in bacterial growth in the presence of Avibactam; type: functional
[47] = tested on: Pseudomonas aeruginosa; assay: Antibacterial activity against Carbapenem- sensitive Pseudomonas aeruginosa 17-29 assessed as reduction in bacterial growth in the presence of Avibactam; type: functional

Q: Which MBC [1] does the source give for `Nc1nc(/C(=N/OCc2cc(=O)c(O)cn2O)C(=O)N[C@@H]2C(=O)N3C(C(=O)O)=CCS[C@H]23)cs1` here?
A: 0.125 µg/mL

Q: What about the MBC [2] of the same compound?
A: 16 µg/mL

Q: What about the MIC [3] of the same compound?
A: > 64 µg/mL

Q: And the MIC [4]?
A: 16 µg/mL

Q: What about the MBC [5] of the same compound?
A: 4 µg/mL

Q: What about the MBC [6] of the same compound?
A: 8 µg/mL

Q: What about the MBC [7] of the same compound?
A: 8 µg/mL

Q: What about the MIC [8] of the same compound?
A: 0.25 µg/mL (≈ 0.492 µM)

Q: What about the MBC [9] of the same compound?
A: 2 µg/mL (≈ 3.93 µM)

Q: What about the MIC [10] of the same compound?
A: 16 µg/mL

Q: And the MIC [11]?
A: 4 µg/mL

Q: And the MIC [12]?
A: 1 µg/mL

Q: And the MBC [13]?
A: > 64 µg/mL

Q: What about the MIC [14] of the same compound?
A: 2 µg/mL (≈ 3.93 µM)

Q: What about the MIC [15] of the same compound?
A: 16 µg/mL

Q: And the MIC [16]?
A: 16 µg/mL

Q: And the MIC [17]?
A: 8 µg/mL

Q: What about the MBC [18] of the same compound?
A: > 64 µg/mL

Q: What about the MIC [19] of the same compound?
A: 0.5 µg/mL

Q: And the MIC [20]?
A: 4 µg/mL (≈ 7.87 µM)

Q: And the MBC [21]?
A: 4 µg/mL (≈ 7.87 µM)

Q: What about the MIC [22] of the same compound?
A: 32 µg/mL

Q: What about the MBC [23] of the same compound?
A: 0.5 µg/mL

Q: What about the MIC [24] of the same compound?
A: 0.125 µg/mL

Q: And the MBC [25]?
A: 32 µg/mL

Q: And the MBC [26]?
A: > 8 µg/mL

Q: And the MBC [27]?
A: 4 µg/mL (≈ 7.87 µM)

Q: What about the MIC [28] of the same compound?
A: 0.5 µg/mL

Q: And the MIC [29]?
A: > 64 µg/mL

Q: What about the MIC [30] of the same compound?
A: 0.5 µg/mL

Q: What about the MIC [31] of the same compound?
A: > 64 µg/mL

Q: What about the MIC [32] of the same compound?
A: 2 µg/mL

Q: And the MBC [33]?
A: 0.5 µg/mL

Q: What about the MBC [34] of the same compound?
A: > 8 µg/mL

Q: What about the MBC [35] of the same compound?
A: 32 µg/mL

Q: What about the MIC [36] of the same compound?
A: 2 µg/mL

Q: And the MIC [37]?
A: 0.5 µg/mL

Q: And the MIC [38]?
A: 2 µg/mL

Q: What about the MBC [39] of the same compound?
A: 2 µg/mL

Q: What about the MBC [40] of the same compound?
A: 0.5 µg/mL

Q: And the MIC [41]?
A: > 64 µg/mL

Q: And the MIC [42]?
A: 2 µg/mL

Q: And the MIC [43]?
A: > 2 µg/mL

Q: What about the MIC [44] of the same compound?
A: > 64 µg/mL

Q: And the MBC [45]?
A: 0.5 µg/mL

Q: What about the MIC [46] of the same compound?
A: 2 µg/mL

Q: What about the MIC [47] of the same compound?
A: 1 µg/mL

Q: What does the source list for `CC(C)(O/N=C(\C(=O)N[C@@H]1C(=O)N2C(C(=O)[O-])=C(C[n+]3ccccc3)CS[C@H]12)c1csc(N)n1)C(=O)O` [CEFTAZIDIME]?
A: MBC [1]: 0.25 µg/mL; MBC [2]: 16 µg/mL; MIC [3]: > 64 µg/mL; MIC [4]: 8 µg/mL; MBC [5]: 1 µg/mL; MBC [6]: 1 µg/mL; MBC [7]: 4 µg/mL; MBC [9]: 4 µg/mL (≈ 7.32 µM); MIC [10]: 8 µg/mL; MIC [11]: 0.5 µg/mL; MIC [12]: 0.5 µg/mL; MBC [13]: > 64 µg/mL; MIC [14]: 4 µg/mL (≈ 7.32 µM); MIC [15]: 8 µg/mL; MIC [16]: 8 µg/mL; MIC [17]: 8 µg/mL; MBC [18]: > 64 µg/mL; MIC [19]: 0.5 µg/mL; MBC [21]: 0.25 µg/mL (≈ 0.457 µM); MIC [22]: 32 µg/mL; MBC [23]: 1 µg/mL; MIC [24]: 1 µg/mL; MBC [25]: 16 µg/mL; MBC [26]: 0.5 µg/mL (≈ 0.915 µM); MBC [27]: 0.5 µg/mL (≈ 0.915 µM); MIC [28]: 2 µg/mL; MIC [29]: > 64 µg/mL; MIC [30]: 0.5 µg/mL; MIC [31]: > 64 µg/mL; MIC [32]: 4 µg/mL; MBC [33]: 1 µg/mL; MBC [34]: 4 µg/mL (≈ 7.32 µM); MBC [35]: > 16 µg/mL; MIC [36]: 1 µg/mL; MIC [37]: 1 µg/mL; MIC [38]: 2 µg/mL; MBC [39]: 1 µg/mL; MBC [40]: > 8 µg/mL; MIC [41]: > 64 µg/mL; MIC [42]: 2 µg/mL; MIC [43]: > 2 µg/mL; MIC [44]: > 64 µg/mL; MBC [45]: 2 µg/mL; MIC [46]: 4 µg/mL; MIC [47]: 0.5 µg/mL

Q: How did the MIC [8] turn out when `C[C@@H](O)[C@H]1C(=O)N2C(C(=O)O)=C(S[C@@H]3CN[C@H](C(=O)N(C)C)C3)[C@H](C)[C@H]12` [MEROPENEM] was run?
A: < 0.03 µg/mL

Q: What about the MIC [20] of the same compound?
A: < 0.03 µg/mL
